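Exposure lasted 48 hours, with cells grown in 96-well plates and compounds tested at five concentrations. GI50 = concentration required for 50% inhibition of growth.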 Calls of active or inactive are those of the source. Rule as the data show it: active = GI50 up to about 1.1 µM and inactive = higher.
Tests used:
Assay in all cases: NCI anticancer screen, dose series, 48 h
786-0 = system: 786-0
ACHN = system: ACHN
BT-549 = system: BT-549
CCRF-CEM = system: CCRF-CEM
HCC 2998 = system: HCC 2998
HCT-116 = system: HCT-116
MCF7 = system: MCF7
MDA-MB-231 = system: MDA-MB-231
MDA-N = system: MDA-N
MOLT-4 = system: MOLT-4
NCI-H226 = system: NCI-H226
NCI-H522 = system: NCI-H522
OVCAR-5 = system: OVCAR-5
RPMI-8226 = system: RPMI-8226
SK-MEL-28 = system: SK-MEL-28
SNB-19 = system: SNB-19
SR = system: SR
UACC-62 = system: UACC-62
SK-MEL-2 = system: SK-MEL-2
Malme-3M = system: Malme-3M

Compound	GI50 (786-0)	GI50 (ACHN)	GI50 (BT-549)	GI50 (CCRF-CEM)	GI50 (HCC 2998)	GI50 (HCT-116)	GI50 (MCF7)	GI50 (MDA-MB-231)	GI50 (MDA-N)	GI50 (MOLT-4)	GI50 (NCI-H226)	GI50 (NCI-H522)	GI50 (OVCAR-5)	GI50 (RPMI-8226)	GI50 (SK-MEL-28)	GI50 (SNB-19)	GI50 (SR)	GI50 (UACC-62)	GI50 (SK-MEL-2)	GI50 (Malme-3M)
COc1ccc(/N=N/C(=N\c2ccc(F)cc2)c2ccc(N(CCC#N)CCC#N)cc2)cc1	42.3 µM (inactive)	82.8 µM (inactive)	17.5 µM (inactive)	36.1 µM (inactive)	19.1 µM (inactive)	32.6 µM (inactive)	28.4 µM (inactive)	14.3 µM (inactive)	29.9 µM (inactive)	31.2 µM (inactive)	> 100 µM (inactive)	20 µM (inactive)	52.1 µM (inactive)	39.2 µM (inactive)	39 µM (inactive)	31.9 µM (inactive)	21.7 µM (inactive)	15.7 µM (inactive)	–	–
COc1cc(OC)cc(-n2c(N)c(C#N)c3ccc([N+](=O)[O-])cc3c2=O)c1	19 µM (inactive)	28.3 µM (inactive)	31.2 µM (inactive)	–	84.1 µM (inactive)	93.5 µM (inactive)	–	37.5 µM (inactive)	80 µM (inactive)	–	23.9 µM (inactive)	–	–	85.7 µM (inactive)	43.1 µM (inactive)	17.5 µM (inactive)	14.2 µM (inactive)	27.3 µM (inactive)	41.2 µM (inactive)	–
COC1C(OC(N)=O)C(O)C(Oc2ccc3c(O)c(NC(=O)c4ccc(O)c(CC=C(C)C)c4)c(=O)oc3c2C)OC1(C)C (stereo unspecified)	> 100 µM (inactive)	> 100 µM (inactive)	> 100 µM (inactive)	77.8 µM (inactive)	47.5 µM (inactive)	> 100 µM (inactive)	> 100 µM (inactive)	> 100 µM (inactive)	> 100 µM (inactive)	48 µM (inactive)	–	–	> 100 µM (inactive)	28.4 µM (inactive)	73.8 µM (inactive)	> 100 µM (inactive)	18.4 µM (inactive)	69.2 µM (inactive)	> 100 µM (inactive)	> 100 µM (inactive)
CC(=O)N1C(C(=O)NC2CCCCC2)CSC1c1ccccc1 (stereo unspecified)	> 100 µM (inactive)	> 100 µM (inactive)	> 100 µM (inactive)	> 100 µM (inactive)	> 100 µM (inactive)	> 100 µM (inactive)	> 100 µM (inactive)	–	> 100 µM (inactive)	> 100 µM (inactive)	51.6 µM (inactive)	> 100 µM (inactive)	> 100 µM (inactive)	> 100 µM (inactive)	–	> 100 µM (inactive)	> 100 µM (inactive)	> 100 µM (inactive)	> 100 µM (inactive)	> 100 µM (inactive)
OCCOCCN1CCN(CCCN2c3ccccc3Sc3ccc(C(F)(F)F)cc32)CC1	16.6 µM (inactive)	17.7 µM (inactive)	19.8 µM (inactive)	0.337 µM (active)	2.78 µM (inactive)	7.91 µM (inactive)	13.1 µM (inactive)	11.1 µM (inactive)	13 µM (inactive)	13.1 µM (inactive)	16.4 µM (inactive)	14.7 µM (inactive)	14.3 µM (inactive)	3.17 µM (inactive)	3.27 µM (inactive)	14.4 µM (inactive)	–	6.65 µM (inactive)	19.4 µM (inactive)	–
CC1=C(C(=O)NNC(=O)CC#N)CC(C(=O)NNC(=O)CC#N)=C(C)N1	> 100 µM (inactive)	> 100 µM (inactive)	> 100 µM (inactive)	–	> 100 µM (inactive)	> 100 µM (inactive)	> 100 µM (inactive)	> 100 µM (inactive)	> 100 µM (inactive)	> 100 µM (inactive)	> 100 µM (inactive)	–	> 100 µM (inactive)	–	> 100 µM (inactive)	> 100 µM (inactive)	–	–	> 100 µM (inactive)	–
NS(=O)(=O)c1ccc(C(=O)O)cc1 [CARZENIDE]	> 100 µM (inactive)	> 100 µM (inactive)	> 100 µM (inactive)	> 100 µM (inactive)	–	> 100 µM (inactive)	> 100 µM (inactive)	> 100 µM (inactive)	> 100 µM (inactive)	> 100 µM (inactive)	–	> 100 µM (inactive)	> 100 µM (inactive)	> 100 µM (inactive)	> 100 µM (inactive)	> 100 µM (inactive)	–	> 100 µM (inactive)	> 100 µM (inactive)	> 100 µM (inactive)
O=C1OC[C@@H]2Cc3cc4c(cc3[C@H](c3ccc5c(c3)OCO5)[C@@H]12)OCO4	> 25 µM (inactive)	> 25 µM (inactive)	> 25 µM (inactive)	> 25 µM (inactive)	> 25 µM (inactive)	18.2 µM (inactive)	24.2 µM (inactive)	22.7 µM (inactive)	12 µM (inactive)	4.11 µM (inactive)	–	–	> 25 µM (inactive)	> 25 µM (inactive)	> 25 µM (inactive)	> 25 µM (inactive)	24 µM (inactive)	–	> 25 µM (inactive)	> 25 µM (inactive)
c1ccc2c(c1)nc1n2CNC1	> 100 µM (inactive)	> 100 µM (inactive)	> 100 µM (inactive)	> 100 µM (inactive)	> 100 µM (inactive)	> 100 µM (inactive)	> 100 µM (inactive)	> 100 µM (inactive)	> 100 µM (inactive)	> 100 µM (inactive)	–	–	> 100 µM (inactive)	> 100 µM (inactive)	> 100 µM (inactive)	> 100 µM (inactive)	> 100 µM (inactive)	> 100 µM (inactive)	> 100 µM (inactive)	–
O=C(O)c1c[nH]c2c(Sc3ccccc3)nccc2c1=O	> 100 µM (inactive)	> 100 µM (inactive)	33 µM (inactive)	47 µM (inactive)	–	> 100 µM (inactive)	> 100 µM (inactive)	> 100 µM (inactive)	> 100 µM (inactive)	> 100 µM (inactive)	> 100 µM (inactive)	76.7 µM (inactive)	> 100 µM (inactive)	–	> 100 µM (inactive)	> 100 µM (inactive)	–	> 100 µM (inactive)	> 100 µM (inactive)	–
CC(C)CCCC(C)[C@H]1CC[C@H]2[C@@H]3CC[C@H]4C[C@@H](CCC=C(c5cc(Cl)c(O)c(C(=O)OC(C)C)c5)c5cc(Cl)c(O)c(C(=O)OC(C)C)c5)CC[C@]4(C)[C@H]3CC[C@]12C (stereo partly specified)	> 50 µM (inactive)	–	> 50 µM (inactive)	> 50 µM (inactive)	> 50 µM (inactive)	> 50 µM (inactive)	> 50 µM (inactive)	> 50 µM (inactive)	> 50 µM (inactive)	> 50 µM (inactive)	–	–	> 50 µM (inactive)	> 50 µM (inactive)	> 50 µM (inactive)	> 50 µM (inactive)	–	> 50 µM (inactive)	> 50 µM (inactive)	–
O=C(C1OC1c1ccc(Cl)cc1)C12CC3CC(CC(C3)C1)C2 (stereo unspecified)	16.3 µM (inactive)	35.4 µM (inactive)	19.9 µM (inactive)	19 µM (inactive)	19.1 µM (inactive)	12.4 µM (inactive)	33.7 µM (inactive)	23.6 µM (inactive)	15.2 µM (inactive)	20 µM (inactive)	18.3 µM (inactive)	20.9 µM (inactive)	24.2 µM (inactive)	–	16.5 µM (inactive)	31.5 µM (inactive)	–	15.4 µM (inactive)	25.5 µM (inactive)	22.4 µM (inactive)
CCOC(=O)/C(=C\NC(C)(C)CO)c1nc2ccccc2[nH]1	> 100 µM (inactive)	27.2 µM (inactive)	> 100 µM (inactive)	35.6 µM (inactive)	46.2 µM (inactive)	> 100 µM (inactive)	86.3 µM (inactive)	–	> 100 µM (inactive)	43.3 µM (inactive)	–	61.7 µM (inactive)	> 100 µM (inactive)	30.8 µM (inactive)	77.8 µM (inactive)	> 100 µM (inactive)	47.3 µM (inactive)	43.5 µM (inactive)	–	> 100 µM (inactive)
CCCCCCCCNC(=O)C1=C(C)NC(C)=C(C(=O)NCCCCCCCC)C1	> 100 µM (inactive)	92.7 µM (inactive)	> 100 µM (inactive)	39.6 µM (inactive)	> 100 µM (inactive)	> 100 µM (inactive)	> 100 µM (inactive)	69.3 µM (inactive)	89.5 µM (inactive)	> 100 µM (inactive)	> 100 µM (inactive)	> 100 µM (inactive)	> 100 µM (inactive)	71 µM (inactive)	–	> 100 µM (inactive)	–	> 100 µM (inactive)	> 100 µM (inactive)	–
O=C(CCCN1CCC2(CC1)CC(=O)N(N1CCOCC1)C2=O)c1ccc(F)cc1	> 100 µM (inactive)	> 100 µM (inactive)	> 100 µM (inactive)	> 100 µM (inactive)	–	> 100 µM (inactive)	> 100 µM (inactive)	> 100 µM (inactive)	> 100 µM (inactive)	> 100 µM (inactive)	99.3 µM (inactive)	> 100 µM (inactive)	> 100 µM (inactive)	> 100 µM (inactive)	> 100 µM (inactive)	> 100 µM (inactive)	–	> 100 µM (inactive)	> 100 µM (inactive)	> 100 µM (inactive)
CCOP(=O)(OCC)C(F)(F)Cc1cnc(C)c2c1COC(C)(C)O2	> 10 µM (inactive)	> 10 µM (inactive)	> 10 µM (inactive)	> 10 µM (inactive)	> 10 µM (inactive)	> 10 µM (inactive)	> 10 µM (inactive)	> 10 µM (inactive)	> 10 µM (inactive)	> 10 µM (inactive)	> 10 µM (inactive)	–	> 10 µM (inactive)	> 10 µM (inactive)	> 10 µM (inactive)	> 10 µM (inactive)	> 10 µM (inactive)	> 10 µM (inactive)	> 10 µM (inactive)	> 10 µM (inactive)

From ChEMBL document CHEMBL1201862, “PubChem BioAssay data set” (2004)
